Measurements: patent US7402548B2, “Benzoxazole compounds, process for producing the same and herbicides” (Kyoyu Agri Co., Ltd., priority 2000, dated 2008)

Experiments:
velvetleaf [1] = assay: Soil treatment test for upland field; type: in vivo, Abutilon theophrasti; design: key: 0 = normal development, 5 = all killed; settings: 500 g/ha, 3 weeks, glass house 25° C.
In short: (§1)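 Using a pre-emergence soil application at 500 g/ha, treated pots were held 3 weeks in a glass house averaging 25° C. Injury was graded on a 0–5 scale against non-treated pots; "-" marks entries not investigated.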

morning glory [2] = assay: Foliar spread test for upland field; type: in vivo, Ipomoea spps.; design: key: 0 = normal development, 5 = all killed (6 ranks vs. untreated); settings: foliar spray, 500 ppm, 3 weeks, glass house 25° C.
In short: (§2)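 Scores on a 0–5 scale (0 normal development, 5 all killed), relative to untreated controls, were taken 3 weeks post-treatment in a 25 °C glass house. Treatment was a uniform foliar spray at 500 ppm (0.5% surfactant) onto roughly 2-week-old soil-grown plants.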

annual bluegrass [3] = assay: Foliar spread test for upland field; type: in vivo, Poa annua; design: key: 0 = normal development, 5 = all killed (6 ranks vs. untreated); settings: foliar spray, 500 ppm, 3 weeks, glass house 25° C.
In short: as §2

blackgrass [4] = assay: Soil treatment test for upland field; type: in vivo, Alopecurus aegualis; design: key: 0 = normal development, 5 = all killed; settings: 500 g/ha, 3 weeks, glass house 25° C.
In short: as §1

annual bluegrass [5] = assay: Soil treatment test for upland field; type: in vivo, Poa annua; design: key: 0 = normal development, 5 = all killed; settings: 500 g/ha, 3 weeks, glass house 25° C.
In short: as §1

barnyard grass [6] = assay: Soil treatment test for upland field; type: in vivo, Eschinochloa crusgalli; design: key: 0 = normal development, 5 = all killed; settings: 500 g/ha, 3 weeks, glass house 25° C.
In short: as §1

barnyard grass [7] = assay: Herbicidal test for paddy field; type: in vivo, Eschinochloa crusgalli; settings: 500 g/ha, dropwise addition to paddy water at 1.5 leaf stage of barnyard grass; glass house 25° C., 3 weeks; rank 0-5 vs non-treated district
Method: (§3) Wagner pots, each having an area of 1/5000 are, were packed with Ube soil (alluvial soil) and planted with seeds or tubers of young rice plant, barnyard grass, bulrush, Cyperus serotinus Rottb., arrowhead and monochoria. Then, the pots were filled with water to a depth of 3 cm.
(§4) Each wettable powder of the desired Compounds (I) shown in Tables 1 to 21, 24, 25, 28 and 29 prepared in accordance with Example 2 was diluted with water containing a surfactant (0.05%) and subjected to dropwise addition treatment by using pipet so that an effective concentration of the compound (I) in each herbicide became 500 g/ha at 1.5 leaf stage of barnyard grass.
(§5) These plants were controlled in a glass house at an average temperature of 25° C. for 3 weeks, and then herbicidal effects thereof were investigated.
(§6) The herbicidal effects are evaluated according to the following 6 ranks as compared with non-treated district. (0: normal development, 1: Less damaged, 2: Slightly damaged, 3: Moderately damaged, 4: Severely damaged, 5: All killed). Incidentally, “-” in the column means not investigated.

common lambsquarters [8] = assay: Foliar spread test for upland field; type: in vivo, Chenopodium album; design: key: 0 = normal development, 5 = all killed (6 ranks vs. untreated); settings: foliar spray, 500 ppm, 3 weeks, glass house 25° C.
In short: as §2

Large crabgrass [9] = assay: Soil treatment test for upland field; type: in vivo, Digitaria adscendens; design: key: 0 = normal development, 5 = all killed; settings: 500 g/ha, 3 weeks, glass house 25° C.
In short: as §1

livid amaranth [10] = assay: Soil treatment test for upland field; type: in vivo, Amaranthus lividus; design: key: 0 = normal development, 5 = all killed; settings: 500 g/ha, 3 weeks, glass house 25° C.
In short: as §1

velvetleaf [11] = assay: Foliar spread test for upland field; type: in vivo, Abutilon theophrasti; design: key: 0 = normal development, 5 = all killed (6 ranks vs. untreated); settings: foliar spray, 500 ppm, 3 weeks, glass house 25° C.
In short: as §2

barnyardgrjass = assay: Foliar spread test for upland field; type: in vivo, Eschinochloa crusgalli; design: key: 0 = normal development, 5 = all killed (6 ranks vs. untreated); settings: foliar spray, 500 ppm, 3 weeks, glass house 25° C.
In short: as §2

corn [12] = assay: Soil treatment test for upland field; type: in vivo; design: key: 0 = normal development, 5 = all killed; settings: 500 g/ha, 3 weeks, glass house 25° C.
In short: as §1

wheat [13] = assay: Soil treatment test for upland field; type: in vivo; design: key: 0 = normal development, 5 = all killed; settings: 500 g/ha, 3 weeks, glass house 25° C.
In short: as §1

sugar beat [14] = assay: Soil treatment test for upland field; type: in vivo; design: key: 0 = normal development, 5 = all killed; settings: 500 g/ha, 3 weeks, glass house 25° C.
In short: as §1

solgum [15] = assay: Soil treatment test for upland field; type: in vivo; design: key: 0 = normal development, 5 = all killed; settings: 500 g/ha, 3 weeks, glass house 25° C.
In short: as §1

common lambsquarters [16] = assay: Soil treatment test for upland field; type: in vivo, Chenopodium album; design: key: 0 = normal development, 5 = all killed; settings: 500 g/ha, 3 weeks, glass house 25° C.
In short: as §1

Large crabgrass [17] = assay: Foliar spread test for upland field; type: in vivo, Digitaria adscendens; design: key: 0 = normal development, 5 = all killed (6 ranks vs. untreated); settings: foliar spray, 500 ppm, 3 weeks, glass house 25° C.
In short: as §2

green foxtail [18] = assay: Foliar spread test for upland field; type: in vivo, Setaria viridis; design: key: 0 = normal development, 5 = all killed (6 ranks vs. untreated); settings: foliar spray, 500 ppm, 3 weeks, glass house 25° C.
In short: as §2

morning glory [19] = assay: Soil treatment test for upland field; type: in vivo, Ipomoea spps.; design: key: 0 = normal development, 5 = all killed; settings: 500 g/ha, 3 weeks, glass house 25° C.
In short: as §1

cotton = assay: Foliar spread test for upland field; type: in vivo; design: key: 0 = normal development, 5 = all killed (6 ranks vs. untreated); settings: foliar spray, 500 ppm, 3 weeks, glass house 25° C.
In short: as §2

corn [20] = assay: Foliar spread test for upland field; type: in vivo; design: key: 0 = normal development, 5 = all killed (6 ranks vs. untreated); settings: foliar spray, 500 ppm, 3 weeks, glass house 25° C.
In short: as §2

soybean [21] = assay: Foliar spread test for upland field; type: in vivo; design: key: 0 = normal development, 5 = all killed (6 ranks vs. untreated); settings: foliar spray, 500 ppm, 3 weeks, glass house 25° C.
In short: as §2

wheat [22] = assay: Foliar spread test for upland field; type: in vivo; design: key: 0 = normal development, 5 = all killed (6 ranks vs. untreated); settings: foliar spray, 500 ppm, 3 weeks, glass house 25° C.
In short: as §2

sugar beat [23] = assay: Foliar spread test for upland field; type: in vivo; design: key: 0 = normal development, 5 = all killed (6 ranks vs. untreated); settings: foliar spray, 500 ppm, 3 weeks, glass house 25° C.
In short: as §2

solgum [24] = assay: Foliar spread test for upland field; type: in vivo; design: key: 0 = normal development, 5 = all killed (6 ranks vs. untreated); settings: foliar spray, 500 ppm, 3 weeks, glass house 25° C.
In short: as §2

green foxtail [25] = assay: Soil treatment test for upland field; type: in vivo, Setaria viridis; design: key: 0 = normal development, 5 = all killed; settings: 500 g/ha, 3 weeks, glass house 25° C.
In short: as §1

blackgrass [26] = assay: Foliar spread test for upland field; type: in vivo, Alopecurus aegualis; design: key: 0 = normal development, 5 = all killed (6 ranks vs. untreated); settings: foliar spray, 500 ppm, 3 weeks, glass house 25° C.
In short: as §2

bulrush = assay: Herbicidal test for paddy field; type: in vivo, Scrips juncoides; settings: 500 g/ha, dropwise addition to paddy water at 1.5 leaf stage of barnyard grass; glass house 25° C., 3 weeks; rank 0-5 vs non-treated district
Method: as §3, §4, §5, §6

livid amaranth [27] = assay: Foliar spread test for upland field; type: in vivo, Amaranthus lividus; design: key: 0 = normal development, 5 = all killed (6 ranks vs. untreated); settings: foliar spray, 500 ppm, 3 weeks, glass house 25° C.
In short: as §2

soybean [28] = assay: Soil treatment test for upland field; type: in vivo; design: key: 0 = normal development, 5 = all killed; settings: 500 g/ha, 3 weeks, glass house 25° C.
In short: as §1

| Structure (SMILES) | Effects Velvetleaf (velvetleaf [1]) | Effects Morning glory (morning glory [2]) | Effects Annual bluegrass (annual bluegrass [3]) | Effects Blackgrass (blackgrass [4]) | Effects Annual bluegrass (annual bluegrass [5]) | Effects Barnyardgrass (barnyard grass [6]) | Effects Barnyardgrass (barnyard grass [7]) | Effects Common lambsquarters (common lambsquarters [8]) | Effects Large crabgrass (Large crabgrass [9]) | Effects Livid amaranth (livid amaranth [10]) | Effects Velvetleaf (velvetleaf [11]) | Effects Barnyardgrass (barnyardgrjass) | Effects Corn (corn [12]) | Effects Wheat (wheat [13]) | Effects Sugar beat (sugar beat [14]) | Effects Solgum (solgum [15]) | Effects Common lambsquarters (common lambsquarters [16]) | Effects Morning glory (morning glory [19]) | Effects Green foxtail (green foxtail [25]) | Effects Bulrush (bulrush) | other results |
| --- | --- | --- | --- | --- | --- | --- | --- | --- | --- | --- | --- | --- | --- | --- | --- | --- | --- | --- | --- | --- | --- |
| CCC(=Cc1cccc(C(F)(F)F)c1)c1nc2cc(F)ccc2o1 [I-c-42] | 5 | 4 | 3 | 5 | 5 | 5 | 5 | 5 | 5 | 5 | 3 | 2 | 1 | 0 | 5 | 5 | 5 | 3 | 5 | 5 | Effects Large crabgrass (Large crabgrass [17]): 4; Effects Green foxtail (green foxtail [18]): 4; Effects Sotton (cotton): 3; Effects Corn (corn [20]): 3; Effects Soybean (soybean [21]): 5; Effects Wheat (wheat [22]): 2; Effects Sugar beat (sugar beat [23]): 4; Effects Solgum (solgum [24]): 2; Effects Blackgrass (blackgrass [26]): 3; Effects Livid amaranth (livid amaranth [27]): 5 |
| CCC(=Cc1cccc(C(F)(F)F)c1)c1nc2cc(C)ccc2o1 [I-c-76] | 5 | 5 | 2 | 5 | 5 | 4 | 4 | 4 | 5 | 5 | 3 | 2 | 1 | 0 | 0 | 3 | 5 | 1 | 5 | 3 | Effects Large crabgrass (Large crabgrass [17]): 4; Effects Green foxtail (green foxtail [18]): 4; Effects Sotton (cotton): 3; Effects Corn (corn [20]): 2; Effects Soybean (soybean [21]): 5; Effects Wheat (wheat [22]): 2; Effects Sugar beat (sugar beat [23]): 4; Effects Solgum (solgum [24]): 2; Effects Blackgrass (blackgrass [26]): 2; Effects Livid amaranth (livid amaranth [27]): 5 |
| CCC(=Cc1cccc(C(F)(F)F)c1)c1nc2cc(C#N)c(Cl)cc2o1 [I-c-143] | 5 | – | – | 4 | 5 | 4 | 5 | – | 5 | 5 | – | – | 1 | 1 | 5 | 3 | 5 | 5 | 5 | 5 | Effects Soybean (soybean [28]): 3 |
| CCCC(=Cc1cccc(C(F)(F)F)c1)c1nc2cc(C#N)c(Cl)cc2o1 [I-c-145] | 5 | 5 | 3 | 5 | 5 | 4 | 4 | 5 | 5 | 5 | 3 | 2 | 0 | 1 | 5 | 1 | 5 | 5 | 5 | 3 | Effects Soybean (soybean [28]): 0; Effects Large crabgrass (Large crabgrass [17]): 3; Effects Green foxtail (green foxtail [18]): 5; Effects Sotton (cotton): 4; Effects Corn (corn [20]): 2; Effects Soybean (soybean [21]): 5; Effects Wheat (wheat [22]): 2; Effects Sugar beat (sugar beat [23]): 3; Effects Solgum (solgum [24]): 2; Effects Blackgrass (blackgrass [26]): 2; Effects Livid amaranth (livid amaranth [27]): 5 |
